These results are taken from patent US11708348B2, “Protease inhibitors for treatment of coronavirus infections” (The Scripps Research Institute, priority 2021, dated 2023).

The term EC50 denotes the midpoint of the concentration-response curve.

For the first experiment, the system named is SARS-CoV-2 strain USA-WA1/2020. The experiment in a line: microbe, parasite or virus in culture. Type of experiment: cell-based. The conditions noted are these: Severe acute respiratory syndrome coronavirus 2, HeLa-ACE2, 24 h, HeLa-ACE2 cells, SARS-CoV-2 infection, 24 h; bound printed in cell; read-out: EC50, uM (Hela).
`C[C@@H]1CN(C(=O)C(=O)NC(C)(C)C(F)(F)F)C[C@H]1C(=O)N[C@@H](C[C@@H]1CCNC1=O)C(=O)COC(F)(F)F` [Compound 293, (3S,4S)-4-methyl-N-((S)-3-oxo-1-((S)-2-oxopyrrolidin-3-yl)-4-(trifluoromethoxy)butan-2-yl)-1-(2-oxo-2-((1,1,1-trifluoro-2-methylpropan-2-yl)amino)acetyl)-pyrrolidine-3-carboxamide]: the EC50 was above 1 µM.
As to `O=C1NCC[C@H]1C[C@H](NC(=O)[C@@H]1C[C@H]2C[C@H]2N1C(=O)[C@@H]1CCCO1)C(=O)COC(F)(F)F` [Compound 304, (1R,3S,5R)-N-(3-oxo-1-((S)-2-oxopyrrolidin-3-yl)-4-(trifluoromethoxy)butan-2-yl)-2-((S)-tetrahydrofuran-2-carbonyl)-2-azabicyclo[3.1.0]-hexane-3-carboxamide], the EC50 is above 1 µM.

Still in this experiment, the particulars now being: Severe acute respiratory syndrome coronavirus 2, HeLa-ACE2, 24 h, HeLa-ACE2 cells, SARS-CoV-2 infection, 24 h; class symbols; read-out: EC50, uM (Hela).
With `O=C(Nc1ccccc1)C(=O)N[C@@H](CC1CCC1)C(=O)N[C@@H](C[C@@H]1CCNC1=O)C(=O)COc1c(F)c(F)cc(F)c1F` [Compound 31, N1-((S)-3-cyclobutyl-1-oxo-1-(((S)-3-oxo-1-((S)-2-oxopyrrolidin-3-yl)-4-(2,3,5,6-tetra-fluorophenoxy)butan-2-yl)amino)propan-2-yl)-N2-phenyloxalamide], the EC50 is below 0.05 µM.
In the case of `CC(C)(C)[C@@H](O)C(=O)N1CC2(CC2)C[C@H]1C(=O)N[C@@H](C[C@@H]1CCNC1=O)C(=O)COC(F)(F)F` [Compound 342, (S)-5-((R)-2-hydroxy-3,3-dimethylbutanoyl)-N-((S)-3-oxo-1-((S)-2-oxopyrrolidin-3-yl)-4-(trifluoromethoxy)butan-2-yl)-5-azaspiro[2.4]heptane-6-carboxamide], the EC50 lay in the range of 0.05 to 0.2 µM.
`O=C(N[C@@H](CC1CC1)C(=O)N[C@@H](C[C@@H]1CCNC1=O)C(=O)COC(F)(F)F)c1nnc(-c2ccc(F)cc2)o1` [Compound 184, N-((S)-3-cyclopropyl-1-oxo-1-(((S)-3-oxo-1-((S)-2-oxopyrrolidin-3-yl)-4-(trifluoromethoxy)butan-2-yl)amino)propan-2-yl)-5-(4-fluorophenyl)-1,3,4-oxadiazole-2-carboxamide]: the EC50 lay within 0.05 to 0.2 µM.
Turning to `CC(C)C[C@H](NC(=O)C(=O)Nc1cc(F)c(Br)c(F)c1)C(=O)N[C@@H](C[C@@H]1CCNC1=O)C(=O)COc1c(F)c(F)cc(F)c1F` [Compound 87, N1-(4-bromo-3,5-difluorophenyl)-N2-((S)-4-methyl-1-oxo-1-(((S)-3-oxo-1-((S)-2-oxopyrrolidin-3-yl)-4-(2,3,5,6-tetrafluorophenoxy)butan-2-yl)amino)pentan-2-yl)oxalamide], the 50% effective concentration (EC50) is 0.05 to 0.2 µM.
On to `CC(C)C[C@H](NC(=O)C(=O)N[C@H]1CCCc2ccccc21)C(=O)N[C@@H](C[C@@H]1CCNC1=O)C(=O)COc1c(F)c(F)cc(F)c1F` [Compound 145, N^1—((S)-4-methyl-1-oxo-1-(((S)-3-oxo-1-((S)-2-oxopyrrolidin-3-yl)-4-(2,3,5,6-tetrafluorophenoxy)butan-2-yl)amino)pentan-2-yl)-N^2—((S)-1,2,3,4-tetrahydronaphthalen-1-yl)oxalamide], for which the 50% effective concentration (EC50) was 0.2 to 0.5 µM.
Consider `CC(C)C[C@H](NC(=O)O[C@H]1CCOC1)C(=O)N[C@@H](C[C@@H]1CCNC1=O)C(=O)COc1c(F)c(F)cc(F)c1F` [Compound 127, (S)-tetrahydrofuran-3-yl ((S)-4-methyl-1-oxo-1-(((S)-3-oxo-1-((S)-2-oxopyrrolidin-3-yl)-4-(2,3,5,6-tetrafluorophenoxy)butan-2-yl)amino)pentan-2-yl)carbamate], for which the 50% effective concentration (EC50) is 0.5 to 1 µM.
Turning to `O=C(N[C@@H](C[C@@H]1CCNC1=O)C(=O)COC(F)(F)F)C1[C@H]2CCC[C@H]2CN1C(=O)[C@H]1CCCO1` (stereo partly drawn) [Compound 299, (1S,3aR,6aS)-N-((S)-3-oxo-1-((S)-2-oxopyrrolidin-3-yl)-4-(trifluoromethoxy)butan-2-yl)-2-((R)-tetrahydrofuran-2-carbonyl)octahydro-cyclopenta[c]pyrrole-l-carboxamide], the EC50 lay in the range of 0.05 to 0.2 µM.
For `CC(C)[C@H](NC(=O)C(=O)Nc1ccccc1F)C(=O)N[C@@H](C[C@@H]1CCNC1=O)C(=O)COc1c(F)c(F)cc(F)c1F` [Compound 90, N1-(2-fluorophenyl)-N2-((S)-3-methyl-1-oxo-1-(((S)-3-oxo-1-((S)-2-oxopyrrolidin-3-yl)-4-(2,3,5,6-tetrafluorophenoxy)butan-2-yl)amino)butan-2-yl)oxalamide], the EC50 lay within 0.05 to 0.2 µM.

The same experiment, now with this note: Severe acute respiratory syndrome coronavirus 2, HeLa-ACE2, 24 h, HeLa-ACE2 cells, SARS-CoV-2 infection, 24 h; read-out: EC50, uM (Hela).
Consider `CC1(C)[C@@H]2[C@@H](C(=O)N[C@@H](C[C@@H]3CCNC3=O)C(=O)COC(F)(F)F)N(C(=O)C3(O)CCC(F)(F)CC3)C[C@@H]21` [Compound 630, (1R,2S,5S)-3-(4,4-difluoro-1-hydroxycyclohexane-1-carbonyl)-6,6-dimethyl-N-((S)-3-oxo-1-((S)-2-oxopyrrolidin-3-yl)-4-(trifluoromethoxy)butan-2-yl)-3-azabicyclo[3.1.0]hexane-2-carboxamide], for which the EC50 lay within 0.05 to 0.2 µM.
On the same count and under the same terms, for `CC1(C)CCC(O)(C(=O)N2CC3(CC3)C[C@H]2C(=O)N[C@@H](C[C@@H]2CCNC2=O)C(=O)COC(F)(F)F)CC1` [Compound 633, (S)-5-(l-hydroxy-4,4-dimethylcyclohexane-1-carbonyl)-N-((S)-3-oxo-1-((S)-2-oxopyrrolidin-3-yl)-4-(trifluoromethoxy)butan-2-yl)-5-azaspiro[2.4]heptane-6-carboxamide] the value was below 0.05 µM; for `O=C1NCC[C@H]1C[C@H](NC(=O)[C@@H]1CC2(CC2)CN1C(=O)[C@H](O)c1ccccc1F)C(=O)COC(F)(F)F` [Compound 410, (S)-5-((R)-2-(2-fluorophenyl)-2-hydroxyacetyl)-N-((S)-3-oxo-1-((S)-2-oxopyrrolidin-3-yl)-4-(trifluoromethoxy)butan-2-yl)-5-azaspiro[2.4]heptane-6-carboxamide], 0.05 to 0.2 µM.
Consider `CC(C)[C@@H](O)CC(=O)N1CC2(CC2)C[C@H]1C(=O)N[C@@H](C[C@@H]1CCNC1=O)C(=O)COC(F)(F)F` [Compound 432, (S)-5-((S)-3-hydroxy-4-methylpentanoyl)-N-((S)-3-oxo-1-((S)-2-oxopyrrolidin-3-yl)-4-(trifluoromethoxy)butan-2-yl)-5-azaspiro[2.4]heptane-6-carboxamide], for which the concentration giving a half-maximal response (EC50) was in the range of 0.05 to 0.2 µM.
On the same count and under the same terms, then `CC(C)C(F)(F)C(=O)N1CC2(CC2)C[C@H]1C(=O)N[C@@H](C[C@@H]1CCNC1=O)C(=O)COC(F)(F)F` [Compound 714, (S)-5-(2,2-difluoro-3-methylbutanoyl)-N-((S)-3-oxo-1-((S)-2-oxopyrrolidin-3-yl)-4-(trifluoromethoxy)butan-2-yl)-5-azaspiro[2.4]heptane-6-carboxamide], with below 0.05 µM; and `CC(C)(C)NC(=O)C(=O)N1C[C@@]2(C[C@H]1C(=O)N[C@@H](C[C@@H]1CCNC1=O)C(=O)COC(F)(F)F)CC2(F)F` [Compound 518, (3R,6S)-5-(2-(tert-butylamino)-2-oxoacetyl)-1,1-difluoro-N-((S)-3-oxo-1-((S)-2-oxopyrrolidin-3-yl)-4-(trifluoromethoxy)butan-2-yl)-5-azaspiro[2.4]-heptane-6-carboxamide], with 0.05 to 0.2 µM; and `O=C1NCC[C@H]1C[C@H](NC(=O)[C@@H]1CC2(CC2)CN1C(=O)C12CC(F)(C1)C2)C(=O)COC(F)(F)F` [Compound 627, (S)-5-(3-fluorobicyclo[1.1.1]pentane-1-carbonyl)-N-((S)-3-oxo-1-((S)-2-oxopyrrolidin-3-yl)-4-(trifluoromethoxy)butan-2-yl)-5-azaspiro[2.4]heptane-6-carboxamide], with 0.05 to 0.2 µM.
Still for that read-out and setting: then `CC(C)C[C@@H](O)C(=O)N1CC[C@@H](C(C)(C)C)C[C@H]1C(=O)N[C@@H](C[C@@H]1CCNC1=O)C(=O)COC(F)(F)F` [Compound 637, (2S,4R)-4-(tert-butyl)-1-((R)-2-hydroxy-4-methylpentanoyl)-N-((S)-3-oxo-1-((S)-2-oxopyrrolidin-3-yl)-4-(trifluoromethoxy)butan-2-yl)piperidine-2-carboxamide], with below 0.05 µM; and `O=C1NCC[C@H]1C[C@H](NC(=O)[C@@H]1CC2(CC2)CN1C(=O)c1cc2cccc(Cl)c2[nH]1)C(=O)COC(F)(F)F` [Compound 663, (S)-5-(7-chloro-1H-indole-2-carbonyl)-N-((S)-3-oxo-1-((S)-2-oxopyrrolidin-3-yl)-4-(trifluoromethoxy)butan-2-yl)-5-azaspiro[2.4]heptane-6-carboxamide], with below 0.05 µM; and `CC(C)C[C@@H](O)C(=O)N[C@@H](CC(C)C)C(=O)N[C@@H](C[C@@H]1CCNC1=O)C(=O)COC(F)(F)F` [Compound 767, (R)-2-hydroxy-4-methyl-N-((S)-4-methyl-1-oxo-1-(((S)-3-oxo-1-((S)-2-oxopyrrolidin-3-yl)-4-(trifluoromethoxy)butan-2-yl)amino)pentan-2-yl)pentanamide], with 0.2 to 0.5 µM.
Consider `O=C1NCC[C@H]1C[C@H](NC(=O)[C@@H]1CC2(CC2)CN1C(=O)C1(O)CCCCC1)C(=O)COC(F)(F)F` [Compound 424, (S)-5-(l-hydroxycyclohexane-1-carbonyl)-N-((S)-3-oxo-1-((S)-2-oxopyrrolidin-3-yl)-4-(trifluoromethoxy)butan-2-yl)-5-azaspiro[2.4]heptane-6-carboxamide], for which the concentration for a half-maximal effect (EC50) was 0.05 to 0.2 µM.
As for `CC(C)C[C@@H](OC(=O)C(C)C)C(=O)N1CC2(CC2)C[C@H]1C(=O)N[C@@H](C[C@@H]1CCNC1=O)C(=O)COC(F)(F)F` [Compound 631, (R)-4-methyl-1-oxo-1-((S)-6-(((S)-3-oxo-l-((S)-2-oxopyrrolidin-3-yl)-4-(trifluoromethoxy)butan-2-yl)carbamoyl)-5-azaspiro[2.4]heptan-5-yl)pentan-2-yl isobutyrate], the 50% effective concentration (EC50) is 0.2 to 0.5 µM.
